Key:
wheat (Tr) = assay: Test Example 5: crop plant selectivity by upland field soil treatment (wheat), phytotoxicity; format: in vivo; set-up: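 grade of crop injury; 5 = at least 90%; 4 = 70 to 90%; 3 = 50 to 70%; 2 = 30 to 50%; 1 = 10 to 30%; 0 = under 10%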; conditions: 21st day after application
Procedure, shortened: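 Wheat and weeds were sown in sand-filled pots and covered with soil, then treated by soil application. Plants grew in a greenhouse, and herbicidal effect and crop phytotoxicity were scored on a rating scale 21 days after application.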

[1] = tested on: common lambsquarters (Ch); assay: Test Example 3: herbicidal effects by upland field foliage treatment; format: in vivo; set-up: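 grade of growth control; 5 = at least 90%; 4 = 70 to 90%; 3 = 50 to 70%; 2 = 30 to 50%; 1 = 10 to 30%; 0 = under 10%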
Procedure, shortened: (§1)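 Using plants cultured for 2 weeks in a greenhouse from seed sown in soil-covered sand (pots 120 cm^2), the compounds were applied to foliage, and weed control was graded by standard criteria 14 days thereafter.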

slender amaranth (Am) [2] = assay: as above; format: in vivo; set-up: scale not given here
Procedure, shortened: as §1

rice flatsedge (Ci) = assay: as above; format: in vivo; set-up: scale not given here
Procedure, shortened: as §1

Diaitaria ciliaris (Di) = assay: as above; format: in vivo; set-up: scale not given here
Procedure, shortened: as §1

corn (Ze) = assay: Test Example 11: crop plant selectivity by upland field foliage treatment (corn), phytotoxicity
Procedure, shortened: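 Corn with pale smartweed, slender amaranth, common lambsquarters and China jute sown in sand-filled pots and grown 2 weeks in a greenhouse before foliage treatment. Herbicidal effect and crop phytotoxicity scored on day 14 after treatment against a rating standard.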

slender amaranth (Am) [3] = assay: Test Example 6: crop plant selectivity by upland field soil treatment (soybean), herbicidal effects; format: in vivo; set-up: scale not given here; conditions: 21st day after application
Procedure, shortened: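 Soybean and weed seeds were sown in sand-filled pots and covered with soil, then given a pre-emergence soil application. Plants were grown on in a greenhouse, and herbicidal effect and crop phytotoxicity were scored against a set rating scale 21 days after application.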

[4] = tested on: common lambsquarters (Ch); assay: Test Example 9: crop plant selectivity by upland field foliage treatment (wheat), herbicidal effects; format: in vivo; set-up: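 grade of growth control; 5 = at least 90%; 4 = 70 to 90%; 3 = 50 to 70%; 2 = 30 to 50%; 1 = 10 to 30%; 0 = under 10%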; conditions: dose 1.6 g ai/10a, 14th day after treatment
Procedure, shortened: (§2)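 Sand-filled pot, wheat + weeds co-sown; greenhouse 2 wk, then foliage treatment; greenhouse culture continued; visual scoring of weed control and crop injury at 14 d post-treatment per grading scale.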

slender amaranth (Am) [5] = assay: as above; format: in vivo; set-up: scale not given here; conditions: dose 1.6 g ai/10a, 14th day after treatment
Procedure, shortened: as §2

China jute (Ab) = assay: as above; format: in vivo; set-up: scale not given here; conditions: dose 1.6 g ai/10a, 14th day after treatment
Procedure, shortened: as §2

pale smartweed (Po) = assay: as above; format: in vivo; set-up: scale not given here; conditions: dose 1.6 g ai/10a, 14th day after treatment
Procedure, shortened: as §2

[6] = 100 g active ingredient per 10 ares, evaluated 14th day after treatment
[7] = corn, foliage treatment, dose 1.6 g ai/10a, evaluated on 14th day after treatment, index per Table 47
[8] = 100 g of the active ingredient per 10 ares, evaluated on the 14th day after treatment
[9] = upland field foliage treatment, dose 1.6 g ai/10a, 14th day after treatment

Structure (SMILES) | Phytotoxicity Tr (wheat (Tr); dose 1.6 g ai/10a) | Herbicidal effects Ch [1, 6] | Herbicidal effects Am (slender amaranth (Am) [2]; [6]) | Herbicidal effects Ci (rice flatsedge (Ci); [6]) | Herbicidal effects Di (Diaitaria ciliaris (Di); [6]) | Phytotoxicity Ze (corn (Ze); [7]) | Herbicidal effects Am (slender amaranth (Am) [3]; dose 1.6 g ai/10a) | Herbicidal effects Ch [1, 8] | Herbicidal effects Am (slender amaranth (Am) [2]; [8]) | Herbicidal effects Ci (rice flatsedge (Ci); [8]) | Herbicidal effects Di (Diaitaria ciliaris (Di); [8]) | Phytotoxicity Ze (corn (Ze); [9]) | Herbicidal effects Ch [4] | Herbicidal effects Am (slender amaranth (Am) [5]) | Herbicidal effects Ab (China jute (Ab)) | Herbicidal effects Po (pale smartweed (Po)) | Herbicidal effects Am (slender amaranth (Am) [3]; dose 6.3 g ai/10a) | Phytotoxicity Tr (wheat (Tr); dose 6.3 g ai/10a) | Phytotoxicity Ze (corn (Ze); upland field foliage treatment, dose 0.1 g ai/10a, 14th day after treatment)
C#CC(C)Oc1cc(-c2cn(C)c(C(F)(F)F)cc2=O)c(F)cc1Cl (racemic) [Compound 6-10] | 0 | 5 | 5 | 5 | 5 | 1 | 5 |  |  |  |  |  |  |  |  |  |  |  | 
COc1cc(-c2ccc(C(F)(F)F)n(C)c2=O)c(F)cc1Cl [1-15] | 2 |  |  |  |  |  | 5 | 5 | 5 | 5 | 5 |  |  |  |  |  |  |  | 
C#CC(C)Oc1cc(-c2ccc(C(F)(F)F)n(C)c2=O)c(F)cc1Cl (stereo not drawn) [1-17] | 1 |  |  |  |  |  | 5 | 5 | 5 | 5 | 5 |  |  |  |  |  |  |  | 
C#CCOc1cc(-c2ccc(C(F)(F)F)n(C)c2=O)c(F)cc1Cl [1-18] | 2 |  |  |  |  |  | 5 | 5 | 5 | 5 | 5 | 2 |  |  |  |  |  |  | 
Cn1c(C(F)(F)F)ccc(-c2cc(OCC#N)c(Cl)cc2F)c1=O [1-25] |  |  |  |  |  |  |  | 5 | 5 | 5 | 5 | 2 | 5 | 5 | 5 | 5 | 5 |  | 
CC(C)Sc1cc(-c2ccc(C(F)(F)F)n(C)c2=O)c(F)cc1Cl [1-43] |  |  |  |  |  |  |  | 5 | 5 | 5 | 5 |  | 5 | 5 | 5 | 5 | 5 | 1 | 
C#CCSc1cc(-c2ccc(C(F)(F)F)n(C)c2=O)c(F)cc1Cl [1-44] |  |  |  |  |  |  |  | 5 | 5 | 5 | 5 |  | 5 | 5 | 5 | 5 | 5 | 1 | 
Cc1cc(-c2ccc(C(F)(F)F)n(C)c2=O)c(F)cc1Cl [1-90] |  |  |  |  |  |  | 5 | 5 | 5 | 5 | 5 |  |  |  |  |  | 5 | 1 | 
COCSc1cc(-c2ccc(C(F)(F)F)n(C)c2=O)c(F)cc1Cl [1-91] | 1 |  |  |  |  |  | 5 | 5 | 5 | 5 | 5 |  | 5 | 5 | 5 | 5 | 5 |  | 
Cn1c(C(F)(F)F)ccc(-c2cc(Cl)c(Cl)cc2F)c1=O [1-136] | 1 |  |  |  |  |  | 5 | 5 | 5 | 5 | 5 |  |  |  |  |  | 5 | 2 | 
Cn1c(C(F)(F)F)ccc(-c2cc(OCC(F)(F)F)c(Cl)cc2F)c1=O [1-155] | 1 |  |  |  |  |  | 5 | 5 | 5 | 5 | 5 |  |  |  |  |  | 5 | 2 | 
Cn1c(C(F)(F)F)ccc(-c2cc(OCC3CC3)c(Cl)cc2F)c1=O [1-160] |  |  |  |  |  |  |  | 5 | 5 | 5 | 5 |  | 5 | 5 | 5 | 5 | 5 | 2 | 
C#CCOc1cc(-c2ccc(C(F)(F)F)n(N)c2=O)c(F)cc1Cl [1-178] | 1 |  |  |  |  |  |  | 5 | 5 | 5 | 5 | 2 | 5 | 5 | 5 | 5 |  |  | 
COc1cc(-c2ccc(C(F)(F)F)n(N)c2=O)c(F)cc1Cl [1-179] |  |  |  |  |  |  |  | 5 | 5 | 5 | 5. | 1 | 5 | 5 | 5 | 5 |  | 1 | 
C#CC(O)c1cc(-c2ccc(C(F)(F)F)n(C)c2=O)c(F)cc1Cl (stereo not drawn) [Compound 1-202] | 1 | 5 | 5 | 5 | 5 |  | 5 |  |  |  |  |  | 5 | 5 | 5 | 5 |  |  | 
C=CCN1C(=O)COc2cc(F)c(-c3ccc(C(F)(F)F)n(C)c3=O)cc21 [Compound 2-7] | 0 | 5 | 5 | 5 | 5 |  | 5 |  |  |  |  |  |  |  |  |  | 5 |  | 
Cc1cc2c(-c3ccc(C(F)(F)F)n(C)c3=O)c(F)cc(Cl)c2o1 [Compound 4-1] | 1 | 5 | 5 | 5 | 5 |  | 5 |  |  |  |  |  | 5 | 5 | 5 | 5 | 5 | 2 | 
CCc1cc2c(-c3ccc(C(F)(F)F)n(C)c3=O)c(F)cc(Cl)c2o1 [Compound 4-2] | 1 | 5 | 5 | 5 | 5 |  | 5 |  |  |  |  |  | 5 | 5 | 5 | 5 |  |  | 
C#CCN1C(=O)COc2cc(F)c(-c3cn(C)c(C(F)(F)F)cc3=O)cc21 [Compound 7-1] |  | 5 | 5 | 5 | 5 | 2 |  |  |  |  |  |  | 5 | 5 | 5 | 5 |  | 2 | 
CON=Cc1cc(-c2ccc(C(F)(F)F)n(C)c2=O)c(F)cc1Cl [Compound No. 1-72, 5-(1-methyl-6-trifluoromethyl-2(1H)-pyridon-3-yl)-2-chloro-4-fluorobenzaldehydeoxime-O-methyl ether] | 1 |  |  |  |  |  | 5 | 5 | 5 | 5 | 5 | 2 |  |  |  |  | 5 |  | 
Cn1c(C(F)(F)F)ccc(-c2cc(C#N)c(Cl)cc2F)c1=O [Compound No. 1-119, 3-(4-chloro-5-cyano-2-fluorophenyl)-1-methyl-6-trifluoromethyl-2(1H)-pyridone] |  |  |  |  |  |  |  | 5 | 5 | 5 | 5 | 2 | 5 | 5 | 4 | 5 | 5 |  | 
C#CCN1C(=O)COc2cc(F)c(-c3ccc(C(F)(F)F)n(C)c3=O)cc21 [Compound No. 2-1, 3-[7-fluoro-2,3-dihydro-4-(2-propynyl)-1,4-benzoxazin-3-on-6-yl]-1-methyl-6-trifluoromethyl-2(1H)-pyridone] | 0 | 5 | 5 | 5 | 5 |  | 5 |  |  |  |  |  |  |  |  |  | 5 |  | 0
C#CCn1c(=O)sc2cc(F)c(-c3ccc(C(F)(F)F)n(C)c3=O)cc21 [Compound No. 3-1, 3-[6-fluoro-3-(2-propynyl)-benzothiazolin-2-on-5-yl]-1-methyl-6-trifluoromethyl-2(1H)-pyridone] |  | 5 | 5 | 5 | 5 |  |  |  |  |  |  |  |  |  |  |  | 5 | 1 | 
COCc1cc2c(-c3ccc(C(F)(F)F)n(C)c3=O)c(F)cc(Cl)c2o1 [Compound No. 4-4, 3-(7-chloro-5-fluoro-2-methoxymethylbenzofuran-4-yl)-1-methyl-6-trifluoromethyl-2-(1H)-pyridone] | 2 | 5 | 5 | 5 | 5 |  |  |  |  |  |  | 2 |  |  |  |  | 5 |  | 
Cn1cc(-c2cc(Oc3ccccc3)c(Cl)cc2F)c(=O)cc1C(F)(F)F [Compound No. 6-19, 5-(4-chloro-2-fluoro-5-phenoxyphenyl)-1-methyl-2-trifluoromethyl-4(1H)-pyridone] | 0 | 5 | 5 | 5 | 5 |  | 5 |  |  |  |  |  |  |  |  |  | 5 | 0 | 
Cc1cc2c(-c3cn(C)c(C(F)(F)F)cc3=O)c(F)cc(Cl)c2o1 [Compound No. 9-1, 5-(7-chloro-5-fluoro-2-methylbenzofuran-4-yl)-1-methyl-2-trifluoromethyl-4(1H)-pyridone] | 0 | 5 | 5 | 5 | 5 |  |  |  |  |  |  |  |  |  |  |  |  | 1 | 
